Where two headings read alike, the source gives them in different places.
Experiments:
[1] = tested on: HCV GT 3a (strain S52) subgenomic replicon; assay: microbe, parasite or virus in culture; assay type: cell-based, hepatitis C virus; settings: Hepatitis C virus, GT3A, 72 h, luciferase, mean ± SD, read-out: Huh7.5-3a(S52) (HCV Replicon 3a) EC50
[2] = tested on: HCV GT 4a (strain ED43) subgenomic replicon; assay: microbe, parasite or virus in culture; assay type: cell-based, hepatitis C virus; settings: Hepatitis C virus, GT4A, 72 h; luciferase; mean ± SD; read-out: Huh7.5-4a(ED43) (HCV Replicon 4a) EC50
[3] = tested on: YFV (strain 17D) subgenomic replicon; assay: microbe, parasite or virus in culture; assay type: cell-based, yellow fever virus; settings: Yellow fever virus, 72 h, read-out: Huh7-YF (YFV Replicon 17D) EC50
[4] = tested on: DENV serotype 2 (strain 16681) subgenomic replicon; assay: microbe, parasite or virus in culture; assay type: cell-based, dengue virus; settings: Dengue virus, DENV2; 72 h; luciferase; mean ± SD; read-out: Huh7-D2 (DENV-2 Replicon) EC50
[5] = tested on: bloodstream form T. b. brucei (strain 221); settings: for EC50: read-out: T. brucei EC50, cultured bloodstream form, mean of triplicate experiments ± SEM; for SI (CC50 for L6 cells / EC50 for T. brucei): selectivity index
[6] = tested on: T. cruzi (CL Brener strain) epimastigotes; settings: selectivity index
[7] = tested on: bloodstream form T. b. brucei (strain 221); assay: microbe, parasite or virus in culture; settings: Trypanosoma brucei, mean of triplicate experiments ± SEM; for EC50: read-out: T. brucei EC50, cultured bloodstream form; for EC90: read-out: T. brucei EC90, cultured bloodstream form
[8] = tested on: T. cruzi (CL Brener strain) epimastigotes; assay: microbe, parasite or virus in culture; settings: Trypanosoma cruzi; for EC50: read-out: T. cruzi EC50; for EC90: read-out: T. cruzi EC90
[9] = Cytotoxicity against cultured L6 cells (resazurin); settings: rat, L6 rat skeletal myoblast cells, L6 Cells CC50, mean of triplicate experiments ± SEM
[10] = Cytotoxicity in Huh5-2 replicon cells (intracellular ATP levels); settings: human
[11] = tested on: rat skeletal myoblast L6 cells; assay: Cytotoxicity against cultured L6 cells (resazurin); settings: read-out: L6 Cells CC50; mean of triplicate experiments ± SEM
[12] = tested on: bloodstream form T. b. brucei (strain 221); settings: cited from earlier work
[13] = tested on: HCV; parameters: method as in doi:10.1039/C5MD00439J; settings: read-out: Antiviral activity (Hepatitis C) EC50; cited from earlier work
[14] = tested on: T. cruzi (CL Brener strain) epimastigotes; parameters: method as in PMID 31303998; settings: lead compound; cited from earlier work
[15] = tested on: rat skeletal myoblast L6 cells; parameters: method as in PMID 31303998; settings: lead compound; cited from earlier work
[16] = tested on: Huh5-2 cells; parameters: method as in PMID 31303998; settings: lead compound; read-out: Huh5-2 (HCV Replicon 1b) CC50; cited from earlier work
[17] = tested on: HCV GT 3a (strain S52) subgenomic replicon; parameters: method as in PMID 31303998; settings: lead compound; read-out: Huh7.5-3a(S52) (HCV Replicon 3a) EC50; cited from earlier work
[18] = tested on: HCV GT 4a (strain ED43) subgenomic replicon; parameters: method as in PMID 31303998; settings: lead compound; read-out: Huh7.5-4a(ED43) (HCV Replicon 4a) EC50; cited from earlier work
[19] = tested on: DENV serotype 2 (strain 16681) subgenomic replicon; parameters: method as in PMID 31303998; settings: lead compound; read-out: Huh7-D2 (DENV-2 Replicon) EC50; cited from earlier work
[20] = earlier lead compounds, read-out: T. brucei EC50

Work on O=C(CN1C(=O)N(Cc2ccccc2)C2(CCCCC2c2ccccc2)C1=O)NO (stereo not shown) [Compound 42, N-Hydroxy-2-(1-benzyl-2,4-dioxo-6-phenyl-1,3-diazaspiro [4.5]decan-3-yl)acetamide] yielded an EC50 [1] greater than 10 µM, an EC50 [2] of 0.45 ± 0.02 µM and an EC50 [3] of 4.68 ± 0.23 µM. The EC50 [4] was 1.37 ± 0.08 µM, the “increase in activity against T. brucei relative to parent compound” value ([5]; 38, 40, 41 versus parent 36, 42 versus parent 37) was 23 fold and the EC50 [5] was 0.191 ± 0.006 µM. For the same molecule, the “SI (CC50 for L6 cells / EC50 for T. brucei)” value [5] was 62, the “SI (CC50 for L6 cells / EC50 for T. cruzi)” value [6] was 6 and the EC50 [7] was 0.19 ± 0.01 µM. For the same molecule, the EC90 [7] was 0.237 ± 0.003 µM, the EC50 [8] was 1.95 ± 0.05 µM and the EC90 [8] was 3.12 ± 0.12 µM. The CC50 at 6 days [9] was 11.9 ± 0.7 µM and the CC50 at 72 h [10] was 9.37 ± 0.182 µM.

CC(C(=O)NO)N1C(=O)NC2(CCC(c3ccccc3)CC2)C1=O (stereo not shown) [Compound 49, N-(Hydroxy)-2-(2,4-dioxo-8-phenyl-1,3-diazaspiro [4.5]decan-3-yl)propanamide] showed an EC50 [1] greater than 10 µM, an EC50 [2] greater than 10 µM and an EC50 [3] of 7.98 ± 0.18 µM. The EC50 [4] was greater than 10 µM, the EC50 [5] was 0.876 ± 0.051 µM and the “SI (CC50 for L6 cells / EC50 for T. brucei)” value [5] was 270. For the same molecule, the EC50 [7] was 0.88 µM, the EC90 [7] was 1.42 ± 0.19 µM and the EC50 [8] was greater than 30 µM. The CC50 at 6 days [9] was greater than 200 µM, the CC50 [11] was 233 ± 33 µM and the CC50 at 72 h [10] was greater than 10 µM.

Work on CC(C(=O)NO)N1C(=O)N(C)C2(CCC(c3ccccc3)CC2)C1=O (stereo not shown) [Compound 53, N-(hydroxy)-2-(1-methyl-2,4-dioxo-8-phenyl-1,3-diazaspiro [4.5]decan-3-yl)propanamide] yielded an EC50 [1] greater than 10 µM, an EC50 [2] of 0.28 ± 0.02 µM and an EC50 [3] greater than 10 µM. The EC50 [4] was 2.45 ± 0.22 µM, the “SI (CC50 for L6 cells / EC50 for T. brucei)” value [5] was 590 and the “SI (CC50 for L6 cells / EC50 for T. cruzi)” value [6] was 11. It also gave an EC50 [7] of 0.154 ± 0.009 µM, an EC90 [7] of 0.281 ± 0.006 µM and an EC50 [8] of 8.5 ± 0.23 µM. The EC90 [8] was 11.9 ± 0.5 µM, the CC50 at 6 days [9] was 90.5 ± 7.3 µM and the CC50 at 72 h [10] was 100 ± 3.57 µM.

In the case of O=C(CN1C(=O)NC2(CCc3ccccc32)C1=O)NO (stereo not shown) [III], the EC50 [12, 20] is given as 0.44 ± 0.08 µM.

In the case of O=C(CN1C(=O)CNC2(CCCCCC2)C1=O)NO [II], the EC50 ([12]; read-out: Trypanocidal activity (T. brucei) EC50) is given as 1.87 ± 0.08 µM.

For O=C(CN1C(=O)NC2(CCCCc3ccccc32)C1=O)NO (stereo not shown) [IV], the EC50 [12, 20] is given as 0.4 ± 0.04 µM.

In the case of O=C1Cn2c(cc3ccccc32)C(=O)N1O [I], the EC50 [13] is listed as 126 ± 14.2 µM.

In the case of O=C(CN1C(=O)NC2(CCCc3ccccc32)C1=O)NO (stereo not shown) [V], the EC50 [12, 20] is given as 0.71 ± 0.12 µM, the EC90 ([12]; lead compound) is given as 1.27 ± 0.02 µM and the “SI (CC50 for L6 cells / EC50 for T. brucei)” value ([12]; lead compound) is given as 590. For the same molecule, the EC50 [14] was greater than 30 µM, the EC90 [14] was greater than 30 µM and the CC50 [15] was 419 ± 55 µM. The CC50 [16] was greater than 200 µM, the EC50 [17] was 2.37 ± 0.17 µM and the EC50 [18] was 0.38 ± 0.04 µM. For the same molecule, the EC50 [19] was 61.5 ± 3.86 µM.

From PMC10385743
